Experimental data as given in article PMC8406298, “Discovery of Fungus-Specific Targets and Inhibitors Using Chemical Phenotyping of Pathogenic Spore Germination” (mBio, 2021).

Columns and labels:
[1] = test system: Cryptococcus yeast (CHY3833 and CHY3836); experiment: Yeast replication secondary screen (OD600); assay type: cell-based, Cryptococcus neoformans serotype D (deneoformans); settings: 10 μM, 12 h at 30°C
Procedure: (ii) Yeast replication. CHY3833 and CHY3836 were each grown in YPD liquid overnight at 30°C to saturation and then resuspended in 0.5× YPD at an OD600 of 0.005. Strains were aliquoted into 384-well plates with inhibitors and grown for 12 h at 30°C at […] before OD600 readings were taken. Compounds that caused a >10% decrease in growth were considered yeast growth inhibitors.

[2] = test system: normal human dermal fibroblasts (NHDF) cells; experiment: Fibroblast cytotoxicity (CellTiter-Glo); assay type: cell-based; settings: 10 µM
Procedure: PrimaPure normal human dermal fibroblasts (NHDF) cells (Genlatis PH10605A) were cultured and passaged in fibroblast growth medium (Genlatis PM116500) according to the manufacturer’s protocol. NHDF cells (1 × 10^3 per well) were plated in a 384-well plate in cell culture medium. The cells were incubated with each compound of interest at 10 μM concentration for 72 h at 37°C and 5% CO2. Following treatment, CellTiter-Glo (Promega) reagent was used to assay ATP-dependent luminescence and thus provide a measure of cell viability. […] For cytotoxicity dose-response curves (Fig. 4C and Fig. 5C), compounds were titrated from 80 μM to 0.5 μM in duplicates.

Row | Structure (SMILES) | Yeast Inhibition: % Inhibition [1] [%] | Cytotoxicity: Relative Cell Viability (% of Negative Control) [2]
1 | COc1ccc(Cc2nc3ccccc3[nH]2)cc1 [compound 763894] | 23.2 | 98.0 % of Negative Control
2 | CCOC(=O)c1ccc(NC(=O)CCc2ccc(CC)o2)cc1 [compound 652808] | 28.0 | 113.1 % of Negative Control
3 | OC(COCC12CC3CC(CC(C3)C1)C2)CN1CCc2ccccc2C1 (stereo not shown) [compound 16456321] | 84.7 | 12.1 % of Negative Control
4 | Cc1cc(C(=O)N2CCC(Oc3ncccc3Cl)CC2)c(C)o1 [compound 71798856] | 54.8 | 93.6 % of Negative Control
5 | C=C(C)Cn1c(C2CC(=O)N(c3ccccc3F)C2)nc2ccccc21 (stereo not shown) [compound 4754109] | 6.6 | 95.9 % of Negative Control
6 | O=C(CCc1ccccc1Br)N1CCC(c2ccsc2)CC1 [compound 71807075] | 9.6 | 93.1 % of Negative Control
7 | CCCOC1(NS(=O)(=O)c2ccccc2)C(Cl)=C(Cl)C(=O)c2ccccc21 (stereo not shown) [compound 3397555] | 101.3 | 17.7 % of Negative Control
8 | N#CSC1C=CS(=O)(=O)C1 (stereo not shown) [compound 99741] | 49.2 | 40.8 % of Negative Control
9 | O=C(CSCc1ccccc1)N1CCC(c2ccsc2)CC1 [compound 71786985] | 11.0 | 101.7 % of Negative Control
10 | COC(=O)c1c(NC(=O)c2ccc(C(C)(C)C)cc2)sc2c1CCN(C(C)C)C2 [compound 4684724] | 50.4 | 34.9 % of Negative Control
11 | CN(C)/C=C/c1cc(=S)c2ccccc2s1 [compound 5991625] | 65.3 | 72.5 % of Negative Control
12 | CCCc1cc(=O)[nH]c(-n2nc(C)cc2C)n1 [compound 44116743] | 96.0 | 64.3 % of Negative Control
13 | COc1cc(NS(=O)(=O)c2cccc(C(F)(F)F)c2)ncn1 [compound 71795763] | -14.5 | 90.4 % of Negative Control
14 | Cc1cc(C(=O)NCC#CCOc2cccc(C(F)(F)F)c2)c(C)o1 [compound 71803023] | 44.0 | 90.7 % of Negative Control
15 | N#CC(C#N)=NNc1cccc(Br)c1 [compound 4199189] | 101.2 | 31.1 % of Negative Control
16 | Cc1ccc2occ(C=O)c(=O)c2c1 [compound 688709] | 100.0 | 91.6 % of Negative Control
17 | Cc1nc(-c2ccc(F)cc2)sc1CCNC(=O)c1ccc(Br)o1 [compound 7503016] | 20.4 | 97.2 % of Negative Control
18 | Cn1c(=O)c(Nc2ccc(O)cc2)c2c3c(cccc31)C(=O)c1ccccc1-2 [compound 1263311] | -2.6 | 86.6 % of Negative Control
19 | O=C(NCCOc1ccc(F)cc1)c1ccc(C(F)(F)F)cc1 [compound 30865811] | 68.2 | 100.1 % of Negative Control

Row | Structure (SMILES) | Yeast Inhibition: % Inhibition [1] [%] | Cytotoxicity: Relative Cell Viability (% of Negative Control) [2]
20 | Cc1cc(C(=O)NCCC(O)c2cccc3ccccc23)c(C)o1 (stereo not shown) [compound 71787916] | 28.8 | 101.1 % of Negative Control
21 | CC1Cc2ccccc2N1C(=O)CCn1c(=O)sc2ccccc21 (stereo not shown) [compound 3163780] | -1.3 | 59.5 % of Negative Control
22 | Cc1n[nH]c(C)c1Br [compound 76937] | 22.1 | 59.9 % of Negative Control
23 | O=C(Nc1cccc(C(F)(F)F)c1)C(Cl)C(=O)c1ccccc1 (stereo not shown) [compound 4162926] | 101.5 | 20.8 % of Negative Control
24 | Cc1ccc2cc(CCC#N)c(Cl)nc2c1 [compound 4736829] | 62.6 | 96.3 % of Negative Control
25 | NNc1nc2cc3c(cc2s1)OCCO3 [compound 2771030] | 99.1 | 94.3 % of Negative Control
26 | O=c1/c(=C/c2ccc(F)cc2F)sc2nc3ccccc3n12 [compound 2354424] | 88.9 | 81.4 % of Negative Control
27 | Cc1ccc2nc(Nc3ccncc3)nc(-c3ccccc3)c2c1 [compound 3516311] | 20.1 | 72.7 % of Negative Control
28 | COc1ccc(/C=C/c2nc3ccccc3[nH]2)cc1 [compound 5769808] | 70.2 | 14.4 % of Negative Control
29 | O=C(c1ccc2cc[nH]c2c1)N1CCCCC(c2ccc(Cl)cc2)C1 (stereo not shown) [compound 76150266] | -14.0 | 92.9 % of Negative Control
30 | COc1ccc(CCN2C(=O)C=CC2=O)cc1OC [compound 282938] | 101.4 | 24.9 % of Negative Control
31 | Cc1ccc(C)c(CSc2nc3ccccc3[nH]2)c1 [compound 899259] | 45.3 | 84.5 % of Negative Control
32 | Cc1nc(NC(=O)CCc2ccccc2)sc1C [compound 733834] | 89.7 | 96.8 % of Negative Control
33 | COc1ccccc1NS(=O)(=O)c1cc(Cl)ccc1Cl [compound 766532] | 96.0 | 56.4 % of Negative Control
34 | OC(COc1ccc(Br)cc1Br)CN1CCc2ccccc2C1 (stereo not shown) [compound 43842355] | 76.5 | 28.9 % of Negative Control
35 | COC(=O)C1=C(N)OC2=C(C(=O)CCC2)C1c1ccc(OC)c(OC)c1 (stereo not shown) [compound 3355288] | 9.4 | 104.5 % of Negative Control
36 | O=[N+]([O-])CC(SCCO)c1ccc(O)cc1 (stereo not shown) [compound 4737365] | 99.2 | 25.2 % of Negative Control
37 | CCc1ccc2nc(N)sc2c1 [compound 773093] | 73.1 | 62.5 % of Negative Control
38 | O=S(=O)(Nc1ccc(Br)cc1F)c1cccc(Cl)c1 [compound 983861] | 55.6 | 101.6 % of Negative Control
